Source: ChEMBL document CHEMBL4630909 (2021)
Activity calls are given as the source filed them. The calls are words filed in the database; no cut-off is given here.

How the values were obtained:
C-C motif chemokine 2 = C-C motif chemokine 2 (Homo sapiens, UniProt P13500); test: In vitro inhibition of MCP-1 in Lipopolysaccharide-stimulated human whole blood; type: tissue-based
[1] = biological target: ATPase family AAA domain-containing protein 2 (Homo sapiens, UniProt Q6PL18); test: ATAD2A DiscoverX BROMOscan
[2] = biological target: ATPase family AAA domain-containing protein 2B (Homo sapiens, UniProt Q9ULI0); test: ATAD2B DiscoverX BROMOscan
[3] = biological target: Bromodomain adjacent to zinc finger domain protein 2A (Homo sapiens, UniProt Q9UIF9); test: BAZ2A DiscoverX BROMOscan
[4] = biological target: Bromodomain adjacent to zinc finger domain protein 2B (Homo sapiens, UniProt Q9UIF8); test: BAZ2B DiscoverX BROMOscan
[5] = biological target: Bromodomain-containing protein 1 (Homo sapiens, UniProt O95696); test: BRD1 DiscoverX BROMOscan
[6] = biological target: Bromodomain-containing protein 7 (Homo sapiens, UniProt Q9NPI1); test: BRD7 DiscoverX BROMOscan
[7] = biological target: T1, Bromodomain-containing protein 8 (Homo sapiens, UniProt Q9H0E9); test: BRD8(1) DiscoverX BROMOscan
[8] = biological target: T1, Bromodomain-containing protein 8; test: BRD8(2) DiscoverX BROMOscan
[9] = biological target: Bromodomain-containing protein 9 (Homo sapiens, UniProt Q9H8M2); test: BRD9 DiscoverX BROMOscan
Peregrin = Peregrin (Homo sapiens, UniProt P55201); test: BRPF1 DiscoverX BROMOscan
[10] = biological target: Bromodomain and PHD finger-containing protein 3 (Homo sapiens, UniProt Q9ULD4); test: BRPF3 DiscoverX BROMOscan
[11] = biological target: Chromatin remodeling regulator CECR2 (Homo sapiens, UniProt Q9BXF3); test: CECR2 DiscoverX BROMOscan
CREB-binding protein = CREB-binding protein (Homo sapiens, UniProt Q92793); test: CREBBP DiscoverX BROMOscan
[12] = biological target: Histone acetyltransferase p300 (Homo sapiens, UniProt Q09472); test: EP300 DiscoverX BROMOscan
[13] = biological target: Nucleosome-remodeling factor subunit BPTF (Homo sapiens, UniProt Q12830); test: FALZ DiscoverX BROMOscan
[14] = biological target: Histone acetyltransferase KAT2A (Homo sapiens, UniProt Q92830); test: GCN5L2 DiscoverX BROMOscan
Protein polybromo-1 [15] = biological target: T2, Protein polybromo-1 (Homo sapiens, UniProt Q86U86); test: PBRM1(2) DiscoverX BROMOscan
Protein polybromo-1 [16] = biological target: T2, Protein polybromo-1; test: PBRM1(5) DiscoverX BROMOscan
[17] = biological target: Histone acetyltransferase KAT2B (Homo sapiens, UniProt Q92831); test: PCAF DiscoverX BROMOscan
[18] = biological target: SWI/SNF-related matrix-associated actin-dependent regulator of chromatin subfamily A member 2 (Homo sapiens, UniProt P51531); test: SMARCA2 DiscoverX BROMOscan
[19] = biological target: SWI/SNF-related matrix-associated actin-dependent regulator of chromatin subfamily A member 4 (Homo sapiens, UniProt P51532); test: SMARCA4 DiscoverX BROMOscan
[20] = biological target: Transcription initiation factor TFIID subunit 1 (Homo sapiens, UniProt P21675); test: TAF1(2) DiscoverX BROMOscan
[21] = biological target: Transcription initiation factor TFIID subunit 1-like (Homo sapiens, UniProt Q8IZX4); test: TAF1L(2) DiscoverX BROMOscan
[22] = biological target: Transcription intermediary factor 1-alpha (Homo sapiens, UniProt O15164); test: TRIM24(PHD,Bromo.) DiscoverX BROMOscan
[23] = biological target: E3 ubiquitin-protein ligase TRIM33 (Homo sapiens, UniProt Q9UPN9); test: TRIM33(PHD,Bromo.) DiscoverX BROMOscan
[24] = biological target: Bromodomain and WD repeat-containing protein 1 (Homo sapiens, UniProt Q9NSI6); test: WDR9(2) DiscoverX BROMOscan
[25] = biological target: 3',5'-cyclic-AMP phosphodiesterase 4B (Homo sapiens, UniProt Q07343); test: (§1) Cross screening panel
[26] = biological target: 5-hydroxytryptamine receptor 1B (Homo sapiens, UniProt P28222); test: as §1
[27] = biological target: 5-hydroxytryptamine receptor 2A (Homo sapiens, UniProt P28223); test: as §1
[28] = biological target: 5-hydroxytryptamine receptor 2C (Homo sapiens, UniProt P28335); test: as §1
[29] = biological target: 5-hydroxytryptamine receptor 3A (Homo sapiens, UniProt P46098); test: as §1
[30] = biological target: Acetylcholine receptor subunit alpha (Homo sapiens, UniProt P02708); test: as §1
Acetylcholinesterase = Acetylcholinesterase (Homo sapiens, UniProt P22303); test: as §1
Adenosine receptor A2a = Adenosine receptor A2a (Homo sapiens, UniProt P29274); test: as §1
[31] = biological target: Alpha-1B adrenergic receptor (Homo sapiens, UniProt P35368); test: as §1
[32] = biological target: Alpha-2C adrenergic receptor (Homo sapiens, UniProt P18825); test: as §1
[33] = biological target: Amine oxidase [flavin-containing] A (Homo sapiens, UniProt P21397); test: as §1
[34] = biological target: Aryl hydrocarbon receptor (Homo sapiens, UniProt P35869); test: as §1
Aurora kinase B = Aurora kinase B (Homo sapiens, UniProt Q96GD4); test: as §1
[35] = biological target: Beta-2 adrenergic receptor (Homo sapiens, UniProt P07550); test: as §1
Cannabinoid receptor 2 = Cannabinoid receptor 2 (Homo sapiens, UniProt P34972); test: as §1
D(1A) dopamine receptor = D(1A) dopamine receptor (Homo sapiens, UniProt P21728); test: as §1
D(2) dopamine receptor = D(2) dopamine receptor (Homo sapiens, UniProt P14416); test: as §1
[36] = biological target: Glutamate receptor ionotropic, NMDA 2B (Homo sapiens, UniProt Q13224); test: as §1
Histamine H1 receptor = Histamine H1 receptor (Homo sapiens, UniProt P35367); test: as §1
[37] = biological target: Kappa-type opioid receptor (Homo sapiens, UniProt P41145); test: as §1
Mu-type opioid receptor = Mu-type opioid receptor (Homo sapiens, UniProt P35372); test: as §1
[38] = biological target: Muscarinic acetylcholine receptor M1 (Homo sapiens, UniProt P11229); test: as §1

Sequence of Acetylcholine receptor subunit alpha (P02708 whole entry): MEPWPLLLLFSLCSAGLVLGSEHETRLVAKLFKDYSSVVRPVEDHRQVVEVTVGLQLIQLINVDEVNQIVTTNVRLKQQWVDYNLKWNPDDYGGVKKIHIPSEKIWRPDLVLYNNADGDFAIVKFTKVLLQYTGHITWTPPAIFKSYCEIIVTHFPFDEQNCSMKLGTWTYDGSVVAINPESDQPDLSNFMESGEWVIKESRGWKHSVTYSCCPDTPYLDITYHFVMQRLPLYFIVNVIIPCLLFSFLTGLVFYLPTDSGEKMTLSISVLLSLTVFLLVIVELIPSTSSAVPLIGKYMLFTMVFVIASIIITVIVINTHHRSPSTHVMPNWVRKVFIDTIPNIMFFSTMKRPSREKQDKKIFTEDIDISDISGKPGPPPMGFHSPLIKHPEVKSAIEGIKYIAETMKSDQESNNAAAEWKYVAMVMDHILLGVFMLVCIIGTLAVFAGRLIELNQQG
Sequence of 5-hydroxytryptamine receptor 2C (P28335 whole entry): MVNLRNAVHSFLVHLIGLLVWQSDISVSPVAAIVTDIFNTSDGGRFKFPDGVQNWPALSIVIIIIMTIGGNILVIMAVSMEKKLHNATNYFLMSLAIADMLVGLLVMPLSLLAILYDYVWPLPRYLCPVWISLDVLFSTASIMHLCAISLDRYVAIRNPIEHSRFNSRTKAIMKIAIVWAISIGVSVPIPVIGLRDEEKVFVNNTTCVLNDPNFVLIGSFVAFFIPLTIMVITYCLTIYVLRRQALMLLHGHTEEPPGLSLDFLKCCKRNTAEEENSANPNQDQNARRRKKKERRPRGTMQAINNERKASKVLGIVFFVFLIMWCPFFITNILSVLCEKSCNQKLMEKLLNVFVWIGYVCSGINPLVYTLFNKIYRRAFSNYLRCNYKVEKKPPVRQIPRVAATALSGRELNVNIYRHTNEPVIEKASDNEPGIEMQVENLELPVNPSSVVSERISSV
T2 sequence (Q86U86 whole entry): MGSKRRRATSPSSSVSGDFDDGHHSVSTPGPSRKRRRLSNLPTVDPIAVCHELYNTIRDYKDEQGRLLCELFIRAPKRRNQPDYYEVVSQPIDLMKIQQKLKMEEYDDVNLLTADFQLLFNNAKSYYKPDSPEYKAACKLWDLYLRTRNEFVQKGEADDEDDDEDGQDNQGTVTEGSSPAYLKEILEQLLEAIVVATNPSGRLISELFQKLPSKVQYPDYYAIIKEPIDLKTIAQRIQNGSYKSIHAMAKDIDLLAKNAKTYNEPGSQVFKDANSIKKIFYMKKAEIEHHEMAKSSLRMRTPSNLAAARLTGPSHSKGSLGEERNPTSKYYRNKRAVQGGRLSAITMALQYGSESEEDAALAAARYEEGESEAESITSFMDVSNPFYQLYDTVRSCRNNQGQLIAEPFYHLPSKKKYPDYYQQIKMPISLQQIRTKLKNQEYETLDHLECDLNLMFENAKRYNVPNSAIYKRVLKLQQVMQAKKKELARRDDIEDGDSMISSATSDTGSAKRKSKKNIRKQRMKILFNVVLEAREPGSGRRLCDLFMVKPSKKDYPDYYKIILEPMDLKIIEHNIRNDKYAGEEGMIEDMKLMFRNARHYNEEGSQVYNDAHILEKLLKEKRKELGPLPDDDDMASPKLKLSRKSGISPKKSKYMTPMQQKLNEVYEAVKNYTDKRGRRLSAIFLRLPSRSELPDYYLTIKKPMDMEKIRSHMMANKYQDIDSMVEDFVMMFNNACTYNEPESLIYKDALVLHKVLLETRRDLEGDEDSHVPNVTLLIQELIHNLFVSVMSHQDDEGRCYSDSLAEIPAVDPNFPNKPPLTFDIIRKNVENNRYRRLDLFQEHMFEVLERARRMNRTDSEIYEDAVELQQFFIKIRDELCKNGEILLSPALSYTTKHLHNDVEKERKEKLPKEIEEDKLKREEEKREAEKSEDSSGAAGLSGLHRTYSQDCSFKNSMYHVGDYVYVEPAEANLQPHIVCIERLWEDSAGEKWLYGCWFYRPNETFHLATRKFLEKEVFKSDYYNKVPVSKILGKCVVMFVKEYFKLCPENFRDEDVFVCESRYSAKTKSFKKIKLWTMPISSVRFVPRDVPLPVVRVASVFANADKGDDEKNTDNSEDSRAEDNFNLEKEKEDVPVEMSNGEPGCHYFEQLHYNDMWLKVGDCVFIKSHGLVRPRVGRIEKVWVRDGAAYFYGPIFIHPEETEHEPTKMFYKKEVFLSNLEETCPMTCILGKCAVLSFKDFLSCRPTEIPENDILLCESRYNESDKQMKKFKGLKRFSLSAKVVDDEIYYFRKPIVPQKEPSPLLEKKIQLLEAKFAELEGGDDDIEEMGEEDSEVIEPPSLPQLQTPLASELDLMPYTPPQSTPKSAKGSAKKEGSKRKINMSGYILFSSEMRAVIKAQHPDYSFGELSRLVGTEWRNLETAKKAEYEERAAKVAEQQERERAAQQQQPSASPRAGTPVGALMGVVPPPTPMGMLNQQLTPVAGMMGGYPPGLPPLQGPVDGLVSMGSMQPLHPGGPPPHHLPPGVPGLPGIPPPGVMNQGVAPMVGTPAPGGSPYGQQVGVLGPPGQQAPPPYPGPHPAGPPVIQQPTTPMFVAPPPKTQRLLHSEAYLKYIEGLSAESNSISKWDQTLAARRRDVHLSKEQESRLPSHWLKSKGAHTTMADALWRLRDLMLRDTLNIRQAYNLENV
T1 sequence (Q9H0E9 whole entry): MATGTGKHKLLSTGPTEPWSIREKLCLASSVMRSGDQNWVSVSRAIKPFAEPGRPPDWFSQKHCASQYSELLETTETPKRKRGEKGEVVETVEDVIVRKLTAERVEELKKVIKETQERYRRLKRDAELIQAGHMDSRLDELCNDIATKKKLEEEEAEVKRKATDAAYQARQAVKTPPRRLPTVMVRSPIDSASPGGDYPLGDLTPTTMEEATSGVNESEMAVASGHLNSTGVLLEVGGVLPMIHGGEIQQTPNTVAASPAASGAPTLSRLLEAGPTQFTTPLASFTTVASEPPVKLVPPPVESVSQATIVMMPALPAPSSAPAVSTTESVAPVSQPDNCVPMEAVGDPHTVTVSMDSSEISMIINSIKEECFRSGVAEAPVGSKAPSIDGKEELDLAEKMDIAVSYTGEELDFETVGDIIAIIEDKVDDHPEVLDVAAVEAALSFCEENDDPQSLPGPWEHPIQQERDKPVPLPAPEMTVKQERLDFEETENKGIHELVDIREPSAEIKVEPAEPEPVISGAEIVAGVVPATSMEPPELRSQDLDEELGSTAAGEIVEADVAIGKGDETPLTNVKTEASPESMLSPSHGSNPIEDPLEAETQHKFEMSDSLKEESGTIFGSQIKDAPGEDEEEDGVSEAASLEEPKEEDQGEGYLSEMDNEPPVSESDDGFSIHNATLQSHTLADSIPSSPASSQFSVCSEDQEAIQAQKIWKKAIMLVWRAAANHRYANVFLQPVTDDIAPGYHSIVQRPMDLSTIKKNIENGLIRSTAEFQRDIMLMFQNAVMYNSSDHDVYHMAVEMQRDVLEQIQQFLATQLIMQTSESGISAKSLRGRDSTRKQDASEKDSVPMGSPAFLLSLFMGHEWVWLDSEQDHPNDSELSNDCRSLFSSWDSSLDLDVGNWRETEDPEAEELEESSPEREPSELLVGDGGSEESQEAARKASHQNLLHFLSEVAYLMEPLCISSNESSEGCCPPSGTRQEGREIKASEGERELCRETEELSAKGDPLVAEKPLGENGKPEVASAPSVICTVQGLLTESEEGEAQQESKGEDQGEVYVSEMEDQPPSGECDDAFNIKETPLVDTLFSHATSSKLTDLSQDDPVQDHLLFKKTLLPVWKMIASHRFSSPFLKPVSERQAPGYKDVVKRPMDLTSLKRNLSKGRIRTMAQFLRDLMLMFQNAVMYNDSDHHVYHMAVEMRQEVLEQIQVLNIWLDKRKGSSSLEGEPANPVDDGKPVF
Sequence of D(2) dopamine receptor (P14416 whole entry): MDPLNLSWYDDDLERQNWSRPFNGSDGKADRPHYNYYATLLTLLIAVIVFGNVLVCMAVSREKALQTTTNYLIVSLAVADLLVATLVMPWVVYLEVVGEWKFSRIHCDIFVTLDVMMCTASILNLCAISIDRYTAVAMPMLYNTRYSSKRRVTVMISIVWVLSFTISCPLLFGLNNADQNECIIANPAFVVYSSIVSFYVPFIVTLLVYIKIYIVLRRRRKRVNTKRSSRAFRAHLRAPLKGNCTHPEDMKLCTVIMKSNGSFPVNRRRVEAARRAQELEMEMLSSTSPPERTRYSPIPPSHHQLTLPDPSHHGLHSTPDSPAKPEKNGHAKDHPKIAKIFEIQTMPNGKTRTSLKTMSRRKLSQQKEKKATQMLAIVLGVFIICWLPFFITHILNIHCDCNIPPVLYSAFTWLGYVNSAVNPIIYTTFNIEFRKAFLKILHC
Sequence of 5-hydroxytryptamine receptor 1B (P28222 whole entry): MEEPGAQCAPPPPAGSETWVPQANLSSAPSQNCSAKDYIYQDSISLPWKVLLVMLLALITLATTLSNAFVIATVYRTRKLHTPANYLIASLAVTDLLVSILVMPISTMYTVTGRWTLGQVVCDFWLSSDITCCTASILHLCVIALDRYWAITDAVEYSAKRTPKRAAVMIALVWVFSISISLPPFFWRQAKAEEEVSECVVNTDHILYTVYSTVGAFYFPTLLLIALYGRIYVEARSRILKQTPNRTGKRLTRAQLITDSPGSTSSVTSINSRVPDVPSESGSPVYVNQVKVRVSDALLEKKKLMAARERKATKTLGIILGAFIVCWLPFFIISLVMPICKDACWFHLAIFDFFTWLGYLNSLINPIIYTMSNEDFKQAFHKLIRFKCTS
Sequence of Kappa-type opioid receptor (P41145 whole entry): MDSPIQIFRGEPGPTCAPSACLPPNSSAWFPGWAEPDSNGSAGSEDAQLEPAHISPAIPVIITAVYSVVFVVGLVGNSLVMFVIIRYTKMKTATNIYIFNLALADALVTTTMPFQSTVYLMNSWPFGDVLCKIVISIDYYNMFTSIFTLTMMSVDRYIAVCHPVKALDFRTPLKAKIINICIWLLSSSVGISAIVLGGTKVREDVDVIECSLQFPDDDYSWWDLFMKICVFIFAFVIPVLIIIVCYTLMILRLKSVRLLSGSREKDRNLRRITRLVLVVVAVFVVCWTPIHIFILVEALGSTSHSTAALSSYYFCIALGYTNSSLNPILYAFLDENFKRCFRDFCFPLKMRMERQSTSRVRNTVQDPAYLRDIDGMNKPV

CNC(=O)c1cc(C(=O)NC2CC2)cn(Cc2ccccc2)c1=O [GSK620]
IC50 (C-C motif chemokine 2): 0.794 µM (active)
Kd [1]: 31.6 µM
Kd [2]: 31.6 µM
Kd [3]: 31.6 µM
Kd [4]: 31.6 µM
Kd [5]: 25.1 µM
Kd [6]: 31.6 µM
Kd [7]: 31.6 µM
Kd [8]: 31.6 µM
Kd [9]: 31.6 µM
Kd (Peregrin): 31.6 µM
Kd [10]: 31.6 µM
Kd [11]: 31.6 µM
Kd (CREB-binding protein): 10 µM
Kd [12]: 7.94 µM
Kd [13]: 25.1 µM
Kd [14]: 31.6 µM
Kd (Protein polybromo-1 [15]): 31.6 µM
Kd (Protein polybromo-1 [16]): 31.6 µM
Kd [17]: 31.6 µM
Kd [18]: 31.6 µM
Kd [19]: 31.6 µM
Kd [20]: 3.98 µM
Kd [21]: 25.1 µM
Kd [22]: 31.6 µM
Kd [23]: 31.6 µM
Kd [24]: 31.6 µM
IC50 [25]: > 100 µM
EC50 [26]: > 100 µM
IC50 [26]: > 100 µM
EC50 [27]: > 25.1 µM
IC50 [27]: > 25.1 µM
EC50 [28]: > 25.1 µM
IC50 [28]: > 25.1 µM
EC50 [29]: > 50.1 µM
IC50 [29]: > 50.1 µM
EC50 [30]: > 50.1 µM
IC50 [30]: > 50.1 µM
IC50 (Acetylcholinesterase): > 100 µM
EC50 (Adenosine receptor A2a): > 100 µM
IC50 [31]: > 25.1 µM
EC50 [32]: > 100 µM
IC50 [33]: > 100 µM
EC50 [34]: > 100 µM
IC50 (Aurora kinase B): > 31.6 µM
EC50 [35]: > 100 µM
IC50 [35]: > 100 µM
EC50 (Cannabinoid receptor 2): > 10 µM
IC50 (D(1A) dopamine receptor): > 100 µM
EC50 (D(2) dopamine receptor): > 100 µM
IC50 (D(2) dopamine receptor): > 100 µM
IC50 [36]: > 50.1 µM
IC50 (Histamine H1 receptor): > 25.1 µM
EC50 [37]: > 100 µM
EC50 (Mu-type opioid receptor): > 100 µM
EC50 [38]: > 50.1 µM
